For assay [1], the system named is non-CF human tracheal gland (HTG) serous cells. The assay can be described thus: Short-circuit current in human tracheal gland (HTG) serous cells. It is filed as cell-based. The conditions noted are these: T16Ainh-A01 pretreatment. The protocol:
FIG. 5A-B. Airway epithelial chloride secretion. FIG. 5A. Short-circuit current in CF HBE cells. Eact and UTP (100 μM) were added in control (left) and IL-4 (10 ng/ml, 24 h, middle) treated CF HBE cells. (right) Summary of Eact-induced, T16Ainh-A01-sensitive peak current (mean±S.E., n=6-8, * P<0.05). ENaC was inhibited by 10 μM amiloride. FIG. 5B. Eact (10 μM) and UTP (100 μM) induced CaCC Cl^− current measured in primary cultures of non-CF human tracheal gland (HTG) serous cells. (left and gmiddle) TMEM16A, CFTR and ENaC were inhibited by pretreatment with T16Ainh-A01, CFTRinh-172 and amiloride, respectively. Inset: TMEM16A immunoblot in whole cell homogenates of CF HBE and HTG cells. (right) Summary of UTP and Eact-induced peak current in the presence and absence of T16Ainh-A01 (mean±S.E., n=3, * P<0.05). […]
Snapwell inserts containing TMEM16A-expressing FRT, HBE, CF HBE or HTG cells were mounted in Ussing chambers (Physiologic Instruments, San Diego, Calif.). […] Apical membrane current (for FRT cells) and short-circuit current were measured using an EVC4000 Multi-Channel V/I Clamp (World Precision Instruments, Sarasota, Fla.) and recorded using PowerLab/8sp (AD Instruments, Castle Hill, Australia). […]

Assay [2] deals with human bronchi submucosal glands. The assay can be described thus: Airway submucosal gland fluid secretion in human bronchi. To be noted: 30 μM T16Ainh-A01. The procedure: FIG. 6A-C. Airway submucosal gland fluid secretion in human bronchi. FIG. 6A. TMEM16A immunohistochemistry in CF (left) and non-CF (right) human bronchi showing apical membrane expression in serous gland epithelial cells (arrows). Scale bar: 20 μm. FIG. 6B. Mucous (fluid) secretion in human bronchi. (top) Images of mucus bubbles formed under oil in response to basolateral application of 300 nM carbachol (CCh) and 20 μM Eact. TMEM16A was inhibited by 30 μM T16Ainh-A01. Individual fluid bubbles marked with arrowheads. Scale bar: 0.5 mm. (bottom) CCh and Eact-induced secretion rates. Where indicated, tissues were pre-treated with T16Ainh-A01 (30 μM). Each point is the average of measurements made from 20 glands (mean±S.E. * P<0.05). FIG. 6C. Summary of human gland fluid secretion rates measured at 20 min after addition of 20 μM Eact, and 30 min after application of 300 nM carbachol (CCh) and 10 μM forskolin (20-66 glands from 3 tracheas and 4 bronchus). In CF-bronchi, 6 glands from one donor were stimulated by Eact. […]
Similar staining was found in non-CF and CF human bronchi. Fluid secretion was measured in individual submucosal glands from the increasing size of mucus (fluid) bubbles in which airway fragments were mounted in a 37° C. perfusion chamber and the mucosal solution was covered with oil.

One molecule from patent US9790218B2, “Small molecule activators of calcium-activated chloride channels and methods of use” (The Regents of the University of California, priority 2011, dated 2017) can be followed below.

As to `CCc1c(C)nc(SCC(=O)Nc2nc(-c3ccc(OC)cc3)cs2)[nH]c1=O` [T16Ainh-A01, reference compound], in assay [1], the “effect of pretreatment on UTP- and Eact-induced Cl^− current” value is reported as “largely abolished”. Further, in assay [2], the “effect of pre-treatment on gland fluid secretion” value was “abolished basal and agonist-stimulated gland fluid secretion”.
